Values of other authors as cited in patent US10583082B2, “Composition comprising at least two dry powders obtained by spray drying to increase the stability of the formulation” (Eratech S.R.L., priority 2013, dated 2020).

Details: from US 2001/0036481 A1

| phospholipid transition temperature (Tg) with humidity [°C] | SMILES |
| --- | --- |
| 41 | CCCCCCCCCCCCCCCC(=O)OC[C@H](COP(=O)([O-])OCC[N+](C)(C)C)OC(=O)CCCCCCCCCCCCCCC [DPPC, dipalmitoylphosphatidylcholine] |
| 63 | CCCCCCCCCCCCCCCC(=O)OCC(COP(=O)(O)OCCN)OC(=O)CCCCCCCCCCCCCCC (stereo not drawn) [DPPE, dipalmitoylphosphatidylethanolamine] |
| 55 | CCCCCCCCCCCCCCCCCC(=O)OC[C@H](COP(=O)([O-])OCC[N+](C)(C)C)OC(=O)CCCCCCCCCCCCCCCCC [DSPC, distearoylphosphatidylcholine] |
